Each structure is given as a SMILES string.

Assay [1] concerns melon (Cucumis melo) fruit acid form alpha-galactosidase. As to the kind of experiment: Substrate kinetics (Lineweaver-Burk) of acid alpha-galactosidase. Format: biochemical, muskmelon (Cucumis melo L. cv C-8). How it is done: (§1) For routine analysis and monitoring the activity in the purification steps, alpha-galactosidase was assayed as described by Smart and Pharr (“Characterization of alpha-galactosidase from cucumber leaves”, Plant Physiology, 66:731-734, 1980), using p-nitrophenyl alpha-galactoside (pNPG) as substrate. […] The reaction was terminated after 10 min by adding 1 ml of 5% (w/v) Na2CO3 and activity expressed as nmol nitrophenol per min as measured at 410 nm. […] The assay was started by adding 50 μl enzyme preparation at 35 C and terminated after 10 to 20 min by 2 min boiling. […] For the partial purification of the acid form of alpha-galactosidase the fractions active at pH 5.5 were pooled and concentrated by reverse dialysis against solid sucrose. […] The active fractions were then desalted by dialysis against buffer A for 12 hours with two changes of the buffer. This enzyme fraction was used for the characterization of the acidic form of alpha-galactosidase. […] The substrate specificity of the alpha-galactosidases was tested with pNPG, stachyose, raffinose, melibiose or guar gum (Sigma).

Assay [2] concerns Escherichia coli K12 alpha-galactosidase. The following applies: Schmid and Schmitt 1976; cited from earlier work.
The test system of assay [3] is Pseudomonas fluorescens H-601 alpha-galactosidase. To be noted: Hashimoto et al. 1991; relative Km values; cited from earlier work.
Assay [4] deals with T1, melon (Cucumis melo) fruit alkaline alpha-galactosidase Form I (Cucumis melo, UniProt Q84NI7).
T1 sequence (Q84NI7 1-754): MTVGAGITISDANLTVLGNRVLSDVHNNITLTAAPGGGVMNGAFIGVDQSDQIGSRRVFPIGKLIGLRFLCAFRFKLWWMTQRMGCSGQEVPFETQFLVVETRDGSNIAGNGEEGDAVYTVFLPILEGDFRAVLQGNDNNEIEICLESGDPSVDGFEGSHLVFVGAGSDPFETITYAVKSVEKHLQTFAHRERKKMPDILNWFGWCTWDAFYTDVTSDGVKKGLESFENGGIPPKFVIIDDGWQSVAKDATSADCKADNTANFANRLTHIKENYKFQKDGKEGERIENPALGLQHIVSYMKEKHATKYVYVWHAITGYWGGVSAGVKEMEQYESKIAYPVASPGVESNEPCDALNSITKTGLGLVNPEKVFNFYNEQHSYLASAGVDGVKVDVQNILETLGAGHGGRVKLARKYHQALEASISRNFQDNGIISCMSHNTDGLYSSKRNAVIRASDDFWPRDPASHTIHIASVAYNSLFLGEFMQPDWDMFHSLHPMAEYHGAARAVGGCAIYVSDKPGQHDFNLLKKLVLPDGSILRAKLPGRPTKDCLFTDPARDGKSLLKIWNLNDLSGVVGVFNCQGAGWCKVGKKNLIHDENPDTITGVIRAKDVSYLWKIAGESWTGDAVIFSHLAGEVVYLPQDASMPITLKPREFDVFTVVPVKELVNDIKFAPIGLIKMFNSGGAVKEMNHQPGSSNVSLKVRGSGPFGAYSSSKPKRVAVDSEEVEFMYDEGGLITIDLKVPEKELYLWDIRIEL
As to the kind of experiment: Substrate kinetics (Lineweaver-Burk) of alkaline alpha-galactosidase Form I. How it is done:
(§2) For routine analysis and monitoring the activity in the purification steps, alpha-galactosidase was assayed as described by Smart and Pharr (“Characterization of alpha-galactosidase from cucumber leaves”, Plant Physiology, 66:731-734, 1980), using p-nitrophenyl alpha-galactoside (pNPG) as substrate. Reaction was initiated by adding 50 μl enzyme aliquot to either 200 μl 100 mM pH 5.5 McIlvaine buffer or 100 mM pH 7.5 HEPES buffer, containing 5 mM pNPG at 35 C. The reaction was terminated after 10 min by adding 1 ml of 5% (w/v) Na2CO3 and activity expressed as nmol nitrophenol per min as measured at 410 nm. […] The assay was started by adding 50 μl enzyme preparation at 35 C and terminated after 10 to 20 min by 2 min boiling.
(§3) The fractions from the DEAE-Sepharose chromatography which were active at pH 7.5 were pooled and dialyzed against buffer A for 12 h prior to loading onto an HPLC ion exchange chromatography column (Mono-Q HR 5/5, Pharmacia, Uppsala, Sweden), previously equilibrated with buffer A. Bound proteins were eluted with a linear gradient of 0.1 to 0.45 M NaCl and the active fractions were detected using pNPG as substrate at pH 7.5 as described above. […] For the further purification of Form II the active fractions of the peak II were chromatographed on hydrophobic interaction chromatography. The fractions were pooled, brought to 1 M (NH4)2SO4 and loaded on to a hydrophobic interaction column (phenyl-Sepharose CL-4B, 0.5×12 cm, Pharmacia, Uppsala, Sweden) previously equilibrated with buffer A containing 1 M (NH4)2SO4. The protein was eluted with a reverse stepwise gradient from 1 to 0 M (NH4)2SO4 with 50 mM intervals in buffer A. Fractions containing the activity peak were collected and dialyzed for 12 h against buffer A and the dialysate was concentrated by reverse dialysis against solid sucrose. The enzyme, partially purified by hydrophobic interaction chromatography, was used for the characterization of Form II. The active fractions from the hydrophobic interaction column were further purified. Active fractions were separated electrophoretically using a Mini Prep Cell (Bio-Rad Laboratories, Hercules, Calif.) for discontinuous native-PAGE with 7% polyacrylamide, according to manufacturer's instructions. Fractions (0.25 ml/fraction) were assayed at pH 7.5 with pNPG as substrate for the activity. The active fractions were pooled, concentrated by Vivaspin Concentrator (Vivascience LTD, Lincoln, England), and run in a 8% SDS-PAGE. Proteins in the SDS-PAGE were identified using Coomassie Blue staining.
(§4) Therefore, the active fractions from the Mono-Q column were used for the characterization of Form I. In addition, the Form I enzyme was further purified, as described in the following section.

Assay [5] has as its target T2, melon (Cucumis melo) fruit alkaline alpha-galactosidase Form II (Cucumis melo, UniProt Q84NI6).
T2 construct: native 102 kDa, denatured 92 kDa; assayed at pH 7.5
T2 sequence (Q84NI6 1-772): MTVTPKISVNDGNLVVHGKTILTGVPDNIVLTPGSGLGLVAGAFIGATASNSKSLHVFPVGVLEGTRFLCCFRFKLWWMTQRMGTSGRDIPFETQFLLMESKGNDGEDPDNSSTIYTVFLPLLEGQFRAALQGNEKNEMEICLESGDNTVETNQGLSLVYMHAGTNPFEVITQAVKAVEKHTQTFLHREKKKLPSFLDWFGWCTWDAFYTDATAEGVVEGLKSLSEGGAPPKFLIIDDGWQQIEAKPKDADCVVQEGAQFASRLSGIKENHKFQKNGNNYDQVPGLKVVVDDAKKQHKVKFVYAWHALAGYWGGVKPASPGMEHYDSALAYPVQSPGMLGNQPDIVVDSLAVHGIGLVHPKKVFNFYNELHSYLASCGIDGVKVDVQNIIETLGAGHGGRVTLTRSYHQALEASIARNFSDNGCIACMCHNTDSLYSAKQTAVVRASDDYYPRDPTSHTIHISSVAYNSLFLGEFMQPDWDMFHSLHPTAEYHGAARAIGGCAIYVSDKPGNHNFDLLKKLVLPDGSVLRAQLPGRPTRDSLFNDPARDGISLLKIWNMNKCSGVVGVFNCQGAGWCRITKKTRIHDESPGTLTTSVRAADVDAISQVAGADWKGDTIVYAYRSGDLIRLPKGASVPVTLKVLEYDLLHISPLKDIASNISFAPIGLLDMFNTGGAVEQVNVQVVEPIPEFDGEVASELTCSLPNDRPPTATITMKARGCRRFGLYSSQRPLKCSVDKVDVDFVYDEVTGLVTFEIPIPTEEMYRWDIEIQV
As to the kind of experiment: Substrate kinetics (Lineweaver-Burk) of alkaline alpha-galactosidase Form II. Format: biochemical, muskmelon (Cucumis melo L. cv C-8). How it is done: as §2, §3

Assay [6] relates to Cucurbita pepo leaf alkaline alpha-galactosidase ("LIV" enzyme). To be noted: Gaudreault and Webb; alkaline form; cited from earlier work.
The target of assay [7] is T2, melon (Cucumis melo) fruit alkaline alpha-galactosidase Form II. In words: Inhibition of alkaline alpha-galactosidase Form II by alternative substrate (galactose release). In kind it is biochemical, muskmelon (Cucumis melo L. cv C-8). The following applies: read-out: inhibition by excess raffinose (galactose release). How it is done: as §2
The subject of assay [8] is Cucurbita pepo leaf alkaline alpha-galactosidase ("LIV" enzyme). As to the kind of experiment: Substrate kinetics of Cucurbita pepo leaf alkaline alpha-galactosidase (Gaudreault and Webb). Format: biochemical. To be noted: calculated for prior art "LIV" enzyme of Gaudreault and Webb.
Assay [9] relates to melon (Cucumis melo) fruit acid form alpha-galactosidase. In words: Inhibition of acid alpha-galactosidase by galactose, pNPG as substrate. Format: biochemical, muskmelon (Cucumis melo L. cv C-8). Here is the method:
as §1

Assay [10] concerns the target T1, melon (Cucumis melo) fruit alkaline alpha-galactosidase Form I. In words: Inhibition of alkaline alpha-galactosidase Form I by galactose, pNPG as substrate. Set-up: native 84 kDa, denatured 79 kDa; assayed at pH 7.5. In kind it is biochemical, muskmelon (Cucumis melo L. cv C-8). How it is done:
as §2, §3, §4

For assay [11], the system named is Cucurbita pepo leaf alkaline alpha-galactosidase. To be noted: 6.4 mM galactose; 7.5 mM pNPG, pH 7.5; cited from earlier work.
For assay [12], the target named is T2, melon (Cucumis melo) fruit alkaline alpha-galactosidase Form II. As to the kind of experiment: Inhibition of alkaline alpha-galactosidase Form II by galactose, pNPG as substrate. Format: biochemical, muskmelon (Cucumis melo L. cv C-8). Here is the method:
as §2
as §3, with “Active fractions were separated electrophoretically using a Mini Prep Cell (Bio-Rad Laboratories, Hercules, Calif.) for discontinuous native-PAGE with 7% polyacrylamide, according to manufacturer's instructions. Fractions (0.25 ml/fraction) were assayed at pH 7.5 with pNPG as substrate for the activity. The active fractions were pooled, concentrated by Vivaspin Concentrator (Vivascience LTD, Lincoln, England), and run in a 8% SDS-PAGE. Proteins in the SDS-PAGE were identified using Coomassie Blue staining.” left out

As for `OC[C@H]1O[C@H](OC[C@H]2O[C@H](O[C@]3(CO)O[C@H](CO)[C@@H](O)[C@@H]3O)[C@H](O)[C@@H](O)[C@@H]2O)[C@H](O)[C@@H](O)[C@H]1O` [Raffinose, O-alpha-D-galactopyranosyl-(1-6)-O-alpha-D-glucopyranosyl-(1-2)-beta-D-fructofuranoside], the Vmax/Km ratio in [1] was 0.17; in assay [4], 0.37; in [5] it was 0.01; in assay [8], 0.0039. Also, the Km was 4.2 mM in assay [1] (Lineweaver-Burk); 60 mM in assay [2]; 17 mM in [3]; below 5 mM in [4] (Lineweaver-Burk); 36.4 mM in assay [6]. Also, the Vmax in [1] (Lineweaver-Burk) came to 0.71 μmol mg^−1 protein min^−1; in assay [4] (Lineweaver-Burk), 0.56 μmol mg^−1 protein min^−1; in [5] (Lineweaver-Burk) it was 0.28 μmol mg^−1 protein min^−1. The inhibition at 80000 µM in assay [7] is 35%.
For `OC[C@H]1O[C@H](O)[C@H](O)[C@@H](O)[C@H]1O` [galactose, alpha-D-galactose], the “reduction in activity by galactose” value in assay [9] (8 mM galactose, 10 mM pNPG) turned out to be 65%. Also, the “inhibition type (galactose)” value in assay [9] (Lineweaver-Burk) is recorded as “competitive”; in assay [10] (alkaline Form I, Lineweaver-Burk) it was “competitive”; in [12] (Lineweaver-Burk), “competitive”. Also, the Ki in [9] (competitive, Lineweaver-Burk) was determined as 60 µM; in assay [10] (alkaline Form I, competitive, Lineweaver-Burk), 13000 µM; in [12] (competitive, Lineweaver-Burk) it was 1300 µM. In addition, the inhibition at 8000 µM came to 8% in assay [10] (8 mM galactose, 10 mM pNPG, alkaline Form I) and 70% in assay [12] (8 mM galactose, 10 mM pNPG, read-out: reduction in activity by galactose). The “inhibition of catalytic activity by galactose (in words)” value in assay [10] (alkaline alpha galactosidase of the invention, FIG. 4D-F) was “no inhibition of catalytic activity”. In addition, the “reduction of reaction velocity by galactose” value in assay [11] was 50%.

As usually defined, the Km is the substrate concentration at which the rate is half of its maximum. A word on the Ki: it is a dissociation constant, usually derived from enzyme kinetics or from competition with a known ligand. A low value points to tighter binding.

Source of the values: patent US7514254B2, “Plant-derived alkaline alpha-galactosidase” (The State of Israel, Ministry of Agriculture & Rural …, priority 1998, dated 2009).
